# Results taken from US20230173018A1, “CASPOFUNGIN DERIVATIVES AND ASSAYS FOR EVALUATING ANTIFUNGAL TREATMENT EFFICACY” (priority 2020, published 2023).
# Key:
# Format in all cases: cell-based
# [1] = tested on: C. glabrata T-193 (11-282); experiment: MIC, broth double dilution; conditions: strain no. 45, T-193 (11-282), clinical isolate
# Source text: (§1) The antifungal activities of compounds 1a, 1 and 2 (collectively: caspofungin derivatives) were compared to that of caspofungin and CSF-BOD using a panel of 49 C. albicans and C. glabrata strains (Tables 1 and 2). The panel included ATCC strains and clinical isolates as well a collection of caspofungin-responsive strains and their corresponding isogenic caspofungin-resistant derivatives, constructed by introducing point mutations within and near the defined hotspots in the FKS1 and/or FKS2 genes of the GS complex. Minimal inhibitory concentration (MIC) values for all strains were determined using the broth double dilution method and are summarized in FIG. 2 and Table 2. […] The clinical breakpoints (threshold) for caspofungin-resistance in C. albicans and C. glabrata are 1 μg/mL and 0.5 μg/mL, respectively.
# C. glabrata ATCC 66032 = experiment: MIC, broth double dilution; conditions: strain no. 40, C. glabrata ATCC 66032
# Source text: as §1
# [2] = tested on: C. glabrata T-191 (11-331); experiment: MIC, broth double dilution; conditions: strain no. 43, T-191 (11-331), clinical isolate
# Source text: as §1
# C. albicans ATCC 10231 = experiment: MIC, broth double dilution; conditions: strain no. 11, C. albicans ATCC 10231
# Source text: as §1
# [3] = tested on: C. glabrata T-982 (11-181); experiment: MIC, broth double dilution; conditions: strain no. 46, T-982 (11-181), clinical isolate
# Source text: as §1
# C. glabrata ATCC 2001 = experiment: MIC, broth double dilution; conditions: strain no. 39, C. glabrata ATCC 2001
# Source text: as §1
# C. glabrata CST109 = experiment: MIC, broth double dilution; conditions: strain no. 18, C. glabrata CST109 (parental)
# Source text: as §1
# C. albicans BWP17 = experiment: MIC, broth double dilution; conditions: strain no. 9, BWP17, parental RM1000
# Source text: as §1
# C. glabrata T-192 (1775) = experiment: MIC, broth double dilution; conditions: strain no. 44, T-192 (1775), clinical isolate
# Source text: as §1
# [4] = tested on: C. glabrata T-190 (11-304); experiment: MIC, broth double dilution; conditions: strain no. 42, T-190 (11-304), clinical isolate
# Source text: as §1
# C. glabrata CST34 = experiment: MIC, broth double dilution; conditions: strain no. 21, C. glabrata CST34 (parental)
# Source text: as §1
# C. glabrata EF1620 = experiment: MIC, broth double dilution; conditions: strain no. 31, C. glabrata EF1620
# Source text: as §1
# [5] = tested on: C. glabrata T-984 (11-078); experiment: MIC, broth double dilution; conditions: strain no. 48, T-984 (11-078), clinical isolate
# Source text: as §1
# C. albicans ATCC 24433 = experiment: MIC, broth double dilution; conditions: strain no. 6, C. albicans ATCC 24433
# Source text: as §1
# C. glabrata ATCC 90030 = experiment: MIC, broth double dilution; conditions: strain no. 16, C. glabrata ATCC 90030, WT
# Source text: as §1
# C. glabrata ATCC 15126 = experiment: MIC, broth double dilution; conditions: strain no. 41, C. glabrata ATCC 15126
# Source text: as §1
# C. albicans SN152 = experiment: MIC, broth double dilution; conditions: strain no. 5, C. albicans SN152
# Source text: as §1
# C. glabrata BG2 = experiment: MIC, broth double dilution; conditions: strain no. 34, C. glabrata BG2
# Source text: as §1
# [6] = tested on: C. glabrata T-983 (11-079); experiment: MIC, broth double dilution; conditions: strain no. 47, T-983 (11-079), clinical isolate
# Source text: as §1
# C. albicans SC5314 = experiment: MIC, broth double dilution; conditions: strain no. 1, C. albicans SC5314, WT
# Source text: as §1
# [7] = tested on: C. glabrata T-985 (11-076); experiment: microbe, parasite or virus in culture; conditions: strain no. 49, T-985 (11-076), clinical isolate
# Source text: as §1
# C. glabrata TGL00293 = experiment: microbe, parasite or virus in culture; conditions: strain no. 37, TGL00293, parental BG2, FKS mutant
# Source text: as §1
# C. glabrata TGL00277 = experiment: microbe, parasite or virus in culture; conditions: strain no. 33, TGL00277, parental EF1620, FKS mutant
# Source text: as §1
# C. glabrata TGL00065 = experiment: microbe, parasite or virus in culture; conditions: strain no. 27, TGL00065, FKS mutant
# Source text: as §1
# [8] = tested on: C. albicans T-2069 (DP-85); experiment: microbe, parasite or virus in culture; conditions: strain no. 14, T-2069 (DP-85), clinical isolate, FKS1 HS1-S645F mutation
# Source text: as §1
# C. glabrata TGL00264 = experiment: microbe, parasite or virus in culture; conditions: strain no. 29, TGL00264, parental CST78, FKS mutant
# Source text: as §1
# C. glabrata TGL00275 = experiment: microbe, parasite or virus in culture; conditions: strain no. 32, TGL00275, FKS mutant
# Source text: as §1
# [9] = tested on: C. albicans DPL1015 (DP-A15); experiment: microbe, parasite or virus in culture; conditions: strain no. 2, DPL1015 (DP-A15), parental SC5314, FKS1 mutant HS1-S645S/P
# Source text: as §1
# C. albicans SN95 = experiment: microbe, parasite or virus in culture; conditions: strain no. 8, SN95, parental RM1000
# Source text: as §1
# C. glabrata TGL00054 = experiment: microbe, parasite or virus in culture; conditions: strain no. 19, TGL00054, parental CST109, FKS2 mutant
# Source text: as §1
# [10] = tested on: C. albicans T-2068 (DP-C42); experiment: microbe, parasite or virus in culture; conditions: strain no. 4, T-2068 (DP-C42), parental SC5314, FKS1 HS1-F641S mutation
# Source text: as §1
# C. glabrata TGL00258 = experiment: microbe, parasite or virus in culture; conditions: strain no. 25, TGL00258, parental CST34, FKS mutant
# Source text: as §1
# C. glabrata TGL00263 = experiment: microbe, parasite or virus in culture; conditions: strain no. 28, TGL00263, parental CST78, FKS mutant
# Source text: as §1
SMILES,MIC [1] [µg/mL],MIC (C. glabrata ATCC 66032) [µg/mL],MIC [2] [µg/mL],MIC (C. albicans ATCC 10231) [µg/mL],MIC [3] [µg/mL],MIC (C. glabrata ATCC 2001) [µg/mL],MIC (C. glabrata CST109) [µg/mL],MIC (C. albicans BWP17) [µg/mL],MIC (C. glabrata T-192 (1775)) [µg/mL],MIC [4] [µg/mL],MIC (C. glabrata CST34) [µg/mL],MIC (C. glabrata EF1620) [µg/mL],MIC [5] [µg/mL],MIC (C. albicans ATCC 24433) [µg/mL],MIC (C. glabrata ATCC 90030) [µg/mL],MIC (C. glabrata ATCC 15126) [µg/mL],MIC (C. albicans SN152) [µg/mL],MIC (C. glabrata BG2) [µg/mL],MIC [6] [µg/mL],MIC (C. albicans SC5314) [µg/mL],other results
CC[C@H](C)C[C@H](C)CCCCCCCCC(=O)N[C@H]1C[C@@H](O)[C@@H](NCCN)NC(=O)[C@@H]2[C@@H](O)CCN2C(=O)[C@H]([C@H](O)CCN)NC(=O)[C@H]([C@H](O)[C@@H](O)c2ccc(OCc3cn(CCCNC(=O)c4ccc(-c5c6ccc(=[N+](C)C)cc-6oc6cc(N(C)C)ccc56)c(C(=O)[O-])c4)nn3)cc2)NC(=O)[C@@H]2C[C@@H](O)CN2C(=O)[C@H]([C@@H](C)O)NC1=O [Compound 1],1,1,0.5,0.5,0.5,1,1,0.25,0.5,0.5,0.5,0.5,0.5,0.5,1,1,0.25,1,0.5,0.25,MIC [7]: 1 µg/mL; MIC (C. glabrata TGL00293): >64 µg/mL; MIC (C. glabrata TGL00277): >64 µg/mL; MIC (C. glabrata TGL00065): >64 µg/mL; MIC [8]: 64 µg/mL; MIC (C. glabrata TGL00264): >64 µg/mL; MIC (C. glabrata TGL00275): 64 µg/mL; MIC [9]: 16 µg/mL; MIC (C. albicans SN95): 0.5 µg/mL; MIC (C. glabrata TGL00054): >64 µg/mL; MIC [10]: 64 µg/mL; MIC (C. glabrata TGL00258): >64 µg/mL; MIC (C. glabrata TGL00263): >64 µg/mL
C#CCOc1ccc([C@H](O)[C@@H](O)[C@@H]2NC(=O)[C@@H]3C[C@@H](O)CN3C(=O)[C@H]([C@@H](C)O)NC(=O)[C@@H](NC(=O)CCCCCCCC[C@@H](C)C[C@@H](C)CC)C[C@@H](O)[C@@H](NCCN)NC(=O)[C@@H]3[C@@H](O)CCN3C(=O)[C@H]([C@H](O)CCN)NC2=O)cc1 [Compound 1a],1,1,0.25,0.125,0.25,0.5,1,0.063,0.5,0.5,0.25,0.5,0.5,0.125,1,1,0.063,0.5,0.25,0.125,MIC [7]: 0.5 µg/mL; MIC (C. glabrata TGL00293): >64 µg/mL; MIC (C. glabrata TGL00277): >64 µg/mL; MIC (C. glabrata TGL00065): >64 µg/mL; MIC [8]: 32 µg/mL; MIC (C. glabrata TGL00264): >64 µg/mL; MIC (C. glabrata TGL00275): 16 µg/mL; MIC [9]: 8 µg/mL; MIC (C. albicans SN95): 0.125 µg/mL; MIC (C. glabrata TGL00054): >64 µg/mL; MIC [10]: 16 µg/mL; MIC (C. glabrata TGL00258): >64 µg/mL; MIC (C. glabrata TGL00263): >64 µg/mL
